Laboratory results published in US5994629A, “Positive selection” (priority 1991, dated 1999).

Legend:
[1] = system: hypocotyl explants of oilseed rape; assay: Transgenic callus from oilseed rape, second section of Table 19; type: cell-based
Procedure: (§1) Experiments were performed as described in Example 11, although with certain modifications. The plant species used were the very recalcitrant breeding lines "V486" of winter oil seed rape and "S487" of summer oilseed rape. Seeds were sterilized and germinated as described in Example 16. Hypocotyls were used as explants and were inoculated and co-cultured as described in Example 11. After co-cultivation the explants were transferred to MSO substrate containing 0.1 mg/l naphthylacetic acid, 0.01 mg/l gibberellic acid (GA3), 500 mg/l carbenicillin, 50 mg/l kanamycin sulphate and 6.0 g/l agarose. The substrate contained in addition either 1 mg/l BA or 3.75, 7.5 or 15.0 mg/l BA3GN sodium salt. The pH was adjusted to 5.8. The Agrobacterium used contained in its T-DNA a GUS gene and a neomycinphosphotransferase II gene driven by 35S promoters. GUS assays were performed after 8 weeks and callus showing an intense blue staining in most of the callus cells was registered as being GUS.

[2] = system: leaf discs of tobacco without (GUS-) introduced β-glucuronidase genes; type: cell-based, Nicotiana tabacum 'Wisconsin 38'; details: test compounds at several concentrations up to 250 μM in MSO
[3] = system: leaf discs of tobacco with (GUS+) introduced β-glucuronidase genes; type: cell-based, Nicotiana tabacum 'Wisconsin 38'; details: test compounds at several concentrations up to 250 μM in MSO
[4] = system: sugar beet cotyledon explants; assay: Transformation of sugar beet, positive and negative selection; type: cell-based; details: 400 mg/l kanamycin sulphate + 1 mg/l BAP (100 explants) or + 15 mg/l BA3GN (177 explants)
Source text: Seeds were germinated for 4 days in darkness on a substrate containing 0.7 g/l of agarose and 2 g/l of sucrose. The seedlings were then transferred to a Nunc container containing 1/2×MSO substrate and cultured for 3 days in the light. The cotyledons were removed from the seedlings, and the cotyledon explants were then brushed on the petiole with a small brush containing an Agrobacterium suspension, the Agrobacterium containing 35S-NPTII and 35S-GUS (OD 660=0.1). The cotelydons were then co-cultivatedfor 4 days on a substrate containing 1/10 MSO substrate and 200 μM acetosyringone. […] The regenerated shoots were then transferred to containers containing the same substrate. After 52 days on this substrate all the shoots were transferred to MSO substrate supplemented with 800 mg/l carbenicillin, 25 mg/l vancomycin and 0.1 mg/l BA. After 14 days GUS assays as described in Example 3 were performed on the selected plant material.

[5] = system: hypocotyl explants of winter oil seed rape V486; assay: Transgenic callus from oilseed rape, winter type V486; type: cell-based; details: 50 mg/l kanamycin sulphate
Procedure: as §1

[6] = Chemical stability
[7] = system: GUS activity in plant tissue; assay: Histological GUS reaction (X-gluc) in plant species with saccharo 1,4-lactone; type: cell-based; details: saccharo 1,4-lactone 10 mM, pH 3-8
[8] = target: T1, GUS activity in plant tissue (Escherichia coli, UniProt P05804); assay: as above; type: cell-based; details: saccharo 1,4-lactone 10 mM, pH 3-8, transgenic (1), GUS gene from E. coli
T1 construct: from tissue; host or cells: leaves of a number of plant species

[9] = system: plant material transgenic for the mannose 6-phosphate isomerase gene; assay: Effect of methyl-3-O-glucose on selection of transgenic shoots on mannose; type: cell-based; details: mannose 15 g/l; MOG 0 g/l; no sucrose
Source text: The transformed plant material is transgenic for the mannose 6-phosphate isomerase gene. After 21 days the selected shoots are harvested.

[10] = system: immature maize embryos; assay: Mannose selection of bombarded immature maize embryos; type: cell-based; details: selection on 10 g/L D-mannose for 3 weeks; 420 embryos
[11] = system: explants with the mannose 6-phosphate isomerase gene from E. coli; assay: Regenerated shoots selected by compounds in addition to mannose, M-6-P-isomerase; type: cell-based; details: genotype M-6-P-isomerase
[12] = system: maize callus cultures; details: callus cultures of 4 maize lines; 0-20 g/L; three weeks
[13] = system: maize protoplasts; assay: Mannose selection in maize protoplast PEG-mediated transformation; type: cell-based; details: 2% mannose for one to two weeks; 47/17 million protoplasts
[14] = system: non-transformed potato stem segments; assay: Inhibition by mannose of regeneration of shoots; type: cell-based, Solanum tuberosum
Procedure: This substrate is referred to hereafter as "selection/regeneration substrate". Regenerated plants are produced as described above, except that the shoot segments are not co-cultured with bacteria and the washing procedure consequential thereon is omitted. […] In general, mannose cannot be used as a carbohydrate source in most plant species. When mannose is added to plants it is metabolized and mannose 6-phosphate accumulates. Mannose 6-phosphate can be converted to fructose 6-phosphate by mannose 6-phosphate isomerase, the amount converted being dependent upon the activity of the isomerase. Such fructose 6-phosphate may be utilized by plants, but in principal high levels of mannose (whether or not an alternative carbohydrate source is available) are toxic to plants.

[15] = system: Wild type explants; assay: Regenerated shoots selected by compounds in addition to mannose, wild type; type: cell-based; details: genotype Wild type
[16] = system: tobacco leaf disc containing an introduced β-glucuronidase gene; assay: Shoot regeneration with sterol glucuronides on tridemorph substrate; type: cell-based; details: sitosteryl glucuronide 12.5 mg/l and/or cholesteryl glucuronide 50 mg/l; tridemorph 0.1 mM and BA3GN sodium salt (5 mM); 30 days
[17] = target: β-glucuronidase from E. coli (Escherichia coli, UniProt P05804); assay: Hydrolysis by β-glucuronidase (GUS), HPLC/TLC; type: biochemical; details: for Hydrolysis by β-glucuronidase (GUS), result in words: 50 mM sodium phosphate buffer pH 7.0, 37° C., HPLC/TLC
Procedure: […] […] This confirms the identity of the product as a conjugate of BA and β-D-glucuronic acid.
[…] The presence of hydrolysis products is then determined using HPLC and TLC.

β-glucuronidase from E. coli, sequence (P05804 whole entry, looked up): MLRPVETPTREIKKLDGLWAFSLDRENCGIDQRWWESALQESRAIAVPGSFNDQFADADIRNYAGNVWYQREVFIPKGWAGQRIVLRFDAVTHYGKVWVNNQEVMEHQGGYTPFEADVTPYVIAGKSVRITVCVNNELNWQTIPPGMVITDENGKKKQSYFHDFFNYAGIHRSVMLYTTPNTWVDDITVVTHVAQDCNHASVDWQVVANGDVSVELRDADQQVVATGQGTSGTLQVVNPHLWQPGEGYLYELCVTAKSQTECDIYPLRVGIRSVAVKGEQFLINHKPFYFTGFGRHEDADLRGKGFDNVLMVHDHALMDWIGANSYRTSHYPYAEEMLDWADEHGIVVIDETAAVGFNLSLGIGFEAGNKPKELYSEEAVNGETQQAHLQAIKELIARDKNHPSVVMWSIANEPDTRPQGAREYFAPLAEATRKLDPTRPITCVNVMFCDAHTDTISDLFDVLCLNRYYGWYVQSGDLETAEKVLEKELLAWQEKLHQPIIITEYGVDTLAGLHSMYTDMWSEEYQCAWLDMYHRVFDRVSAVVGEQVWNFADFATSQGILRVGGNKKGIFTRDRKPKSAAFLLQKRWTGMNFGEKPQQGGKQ
T1 sequence (P05804 whole entry): as the sequence (P05804 whole entry, looked up) above

## c1ccc(CNc2ncnc3nc[nH]c23)cc1 [BA, N^6 -benzyladenine]
[1]; BA 1 mg/l
  Explants with callus: 0%
  GUS+ callus per callus: 0%
  GUS+ callus per explant: 0%
[2]
  Shoot formation, GUS-: + ("+" means shoot formation at concentrations below 250 μM)
[3]
  Shoot formation, GUS+: + ("+" means shoot formation at concentrations below 250 μM)
[4]
  GUS+ Shoots: 0
  GUS+ shoots (%): 0%
[5]; BA 1 mg/l
  Explants with callus: 0%
  GUS+ callus per callus: 0%
  GUS+ callus per explant: 0%

## O=C(O)[C@@H](O)[C@H]1OC(=O)[C@H](O)[C@H]1O [Saccharo 1,4-lactone]
[6]; equilibrium with saccharic acid
  stability at the pH of the substrate: not a stable compound
[7]; Oilseed rape
  Histological GUS reaction: 0
[7]; Oxalis, stem or petiole
  Histological GUS reaction: 0
[7]; Pea, stem or petiole
  Histological GUS reaction: 0
[7]; Rhubarb, stem or petiole
  Histological GUS reaction: 0
[7]; Sitka spruce, embryogenic callus
  Histological GUS reaction: 0
[7]; Sugar beet, transgenic (2), NPT only
  Histological GUS reaction: 0
[7]; Sugar beet, wild type
  Histological GUS reaction: 0
[7]; Tobacco
  Histological GUS reaction: 0
[7]; Tobacco, transgenic (2), NPT only
  Histological GUS reaction: 0
[7]; Wheat, albino
  Histological GUS reaction: 0
[8]; Sugar beet
  Histological GUS reaction: (+)
[8]; Tobacco
  Histological GUS reaction: 0

## O=C[C@@H](O)[C@@H](O)[C@H](O)[C@H](O)CO [mannose, D-mannose]
[9]
  GUS+ shoots/explant: 0
  GUS+ shoots/sel. shoots (%): 0%
[10]
  % transformation: 2.9%
[11]
  Number of regenerated shoots per explant: 1.1
[12]
  utilization as carbohydrate source, in words: cannot be utilized as the sole carbohydrate source
[13]
  stable transformation frequency: 0.00028%
[14]; sucrose 0 g/l, mannose 5 g/l, up to 40th day
  Regenerated shoots/explant (%): 0%
[14]; sucrose 0 g/l, mannose 10 g/l
  Regenerated shoots/explant (%): 0%
[14]; sucrose 0 g/l, mannose 20 g/l
  Regenerated shoots/explant (%): 0%
[14]; sucrose 10 g/l, mannose 5 g/l
  Regenerated shoots/explant (%): 3%
[14]; sucrose 10 g/l, mannose 10 g/l
  Regenerated shoots/explant (%): 0%
[14]; sucrose 10 g/l, mannose 20 g/l
  Regenerated shoots/explant (%): 0%
[14]; sucrose 20 g/l, mannose 5 g/l
  Regenerated shoots/explant (%): 0%
[14]; sucrose 20 g/l, mannose 10 g/l
  Regenerated shoots/explant (%): 0%
[14]; sucrose 20 g/l, mannose 20 g/l
  Regenerated shoots/explant (%): 0%
[15]
  Number of regenerated shoots per explant: 0

## CC(C)CCC[C@@H](C)[C@H]1CC[C@H]2[C@@H]3CC=C4C[C@@H](O[C@@H]5O[C@H](C(=O)O)[C@@H](O)[C@H](O)[C@H]5O)CC[C@]4(C)[C@H]3CC[C@]12C [Choesteryl-β-D-glucuronide, cholesteryl-β-D-glucuronide]
[16]
  Shoots per leaf disc: 0.3

## CC[C@H](CC[C@@H](C)[C@H]1CC[C@H]2[C@@H]3CC=C4C[C@@H](O[C@@H]5O[C@H](C(=O)O)[C@@H](O)[C@H](O)[C@H]5O)CC[C@]4(C)[C@H]3CC[C@]12C)C(C)C [Sitosteryl-β-D-glucuronide, β-sitosteryl-β-D-glucuronidide]
[16]
  Shoots per leaf disc: 2.8

## O=C([O-])[C@H]1O[C@@H](n2cnc3c(NCc4ccccc4)ncnc32)[C@H](O)[C@@H](O)[C@@H]1O.[Na+] [BA9GN sodium salt, 9-β-D-glucopyranuronosyl-6-benzylaminopurine, sodium salt]
[6]; 1 mg/ml, 1M hydrochloric acid at 100° C. overnight, TLC
  acid hydrolysis: acid-labile
[2]
  Shoot formation, GUS-: - ("-" means no shoot formation at concentrations below 250 μM)
[3]
  Shoot formation, GUS+: - ("-" means no shoot formation at concentrations below 250 μM)
[17]
  Hydrolysis by β-glucuronidase (GUS), result in words: no detectable production of BA
[17]; 18 hours at 37° C.
  production of BA after incubation with β-glucuronidase: < 1%

## O=C([O-])[C@H]1O[C@@H](n2cnc(NCc3ccccc3)c3ncnc2-3)[C@H](O)[C@@H](O)[C@@H]1O.[Na+]
[1]; BA3GN 3.75 mg/l
  GUS+ callus per callus: 33.3%
  GUS+ callus per explant: 1.7%
[1]; BA3GN 3.75 mg/l, 50 mg/l kanamycin sulphate
  Explants with callus: 5.2%
[1]; BA3GN 7.5 mg/l
  Explants with callus: 9.2%
  GUS+ callus per callus: 25.0%
  GUS+ callus per explant: 2.3%
[1]; BA3GN 15.00 mg/l
  Explants with callus: 6.3%
  GUS+ callus per callus: 14.2%
  GUS+ callus per explant: 0.9%
[2]
  Shoot formation, GUS-: + ("+" means shoot formation at concentrations below 250 μM)
[3]
  Shoot formation, GUS+: + ("+" means shoot formation at concentrations below 250 μM)
[4]
  GUS+ Shoots: 4
  GUS+ shoots (%): 2.3%
[5]; BA3GN 3.75 mg/l
  GUS+ callus per callus: 7.1%
  GUS+ callus per explant: 1.4%
[5]; BA3GN 3.75 mg/l, 8 weeks
  Explants with callus: 19.0%
[5]; BA3GN 7.5 mg/l
  Explants with callus: 23.0%
  GUS+ callus per callus: 5.9%
  GUS+ callus per explant: 1.4%
[5]; BA3GN 15.00 mg/l
  Explants with callus: 30.6%
  GUS+ callus per callus: 7.5%
  GUS+ callus per explant: 2.3%
[17]
  Hydrolysis by β-glucuronidase (GUS), result in words: virtually complete removal
[17]; 2500 Fishman units, 12 hours, 37° C., HPLC and TLC
  removal of the glucuronide by GUS: > 99%

## O=P(O)(O)OC[C@H]1OC(O)[C@@H](O)[C@@H](O)[C@@H]1O (stereo partly drawn) [D-mannose-6-phosphate]
[11]
  Number of regenerated shoots per explant: 0.7
[15]
  Number of regenerated shoots per explant: 0

## N[C@@H]1C(O)O[C@H](CO)[C@@H](O)[C@@H]1O (stereo partly drawn) [D-mannosamine]
[11]
  Number of regenerated shoots per explant: 0.8
[15]
  Number of regenerated shoots per explant: 0
